{
  "source": "paper PMC4788259",
  "about": "(PLoS Neglected Tropical Diseases, 2016)",
  "key": {"[1]": {"test_system": "human foreskin fibroblasts (HFF)", "test": "alamarBlue viability assay on HFF", "format": "cell-based", "settings": "Fibroblast, 120 h, 5 days", "description": "For testing growth inhibitory effects on confluent host cells, cells were seeded in 96-well plates (10,000 cells per well for HFF and 50,000 cells per well for RH cells), in DMEM containing FBS (10%) and antibiotics (100 U penicillin, 100 μg streptomycin and 0.25 μg amphotericin B per mL medium) and were cultured overnight at 37°C, 5% CO2. Thereafter the drugs (10 μM) were added and diluted in a serial 1:2 dilutions down to 20 nM. The concentration range was further adjusted in subsequent setups. For testing growth inhibitory effects on proliferating cells, cells were seeded at 1,000 (HFF) and 5,000 (RH) cells per well, and were allowed to attach for 5 hours at 37°C before addition of the drugs. After 5 days of culture, cell viability was assessed by alamarBlue assay."}, "[2]": {"test_system": "E. multilocularis germinal layer cells", "test": "CellTiter-Glo viability assay on germinal layer cell cultures", "format": "cell-based", "settings": "Echinococcus multilocularis, 120 h, 5 days, read-out: E.m. GL cells (IC50)", "description": "To assess the effects of MMV665807 on the viability of parasite cells, germinal layer cells were extracted according to Spiliotis et al. After overnight aggregate formation, 15 units of cells were distributed to a black 384 well plate (Nunc, Thermo Scientific, Reinach, Switzerland) in 12.5 μL medium. A concentration series (final concentrations of 3, 1, 0.3, 0.1, 0.03, 0.01 μM) of MMV665807, MMV665794 and mefloquine were prepared in medium and added 1:2 to the cells. For mefloquine, the concentration range was adjusted in a subsequent setup up to 100 μM. As negative control, DMSO was added accordingly. After 5 days of culture at 37°C under humid nitrogen atmosphere, 25 μL CellTiter-Glo (Promega, Dübendorf, Switzerland) including 1% TritonX-100 was added. Plates were incubated for 15 minutes on a shaker at room temperature and complete disruption of all cell aggregates was checked for before measurement of luminescence on a 2300 Enspire multilabel reader (Perkin-Elmer). Mean values and standard deviations were calculated and DMSO values set to 100% viability. The IC50 value was calculated in Microsoft Excel 2010 after logit-log transformation and averages as well as standard deviations of four independent setups were calculated."}, "[3]": {"test_system": "E. multilocularis metacestodes", "test": "Transmission electron microscopy of treated metacestodes", "format": "cell-based, Echinococcus multilocularis", "settings": "5 days", "description": "In vitro-cultured metacestodes were cultured for five days in the presence of 1.6, 0.8, 0.4 or 0.1 μM MMV665807, or in the absence of the drug, and were processed for TEM as previously described. In short, primary fixation was carried out in 2% glutaraldehyde in 0.1 M sodium-cacodylate buffer, pH 7.3 for 1 h, and post-fixation in 2% osmium tetroxide in 0.1 M sodium-cacodylate buffer for 2 h. Samples were then pre-stained in saturated uranyl acetate solution in water for 30 min, washed in water, and were stepwise dehydrated in ethanol (30%, 50%, 70%, 90%, and three times 100%). Subsequently specimens were embedded in epoxy resin and polymerization of the resin was carried out at 60°C for 12 h. Ultrathin sections were cut using an ultramicrotome (Reichert and Jung, Vienna, Austria), and were loaded onto formvar-carbon coated nickel grids (Plano GmbH, Marburg, Germany). Specimens were stained with uranyl acetate and lead citrate, and were viewed on a Phillips EM400 transmission electron microscope operating at 80 kV."}, "[4]": {"test_system": "E. multilocularis metacestode vesicles", "settings": "12 days, alamarBlue vesicle viability assay"}, "[5]": {"test_system": "newly transformed schistosomula", "parameters": "method as in PMID 24416463", "settings": "in vitro; read-out: IC50 against newly transformed schistosomula; cited from earlier work"}, "[6]": {"test_system": "adult worms", "parameters": "method as in PMID 24416463", "settings": "in vitro; read-out: IC50 against adult worms; cited from earlier work"}, "[7]": {"settings": "cited from earlier work"}, "[8]": {"parameters": "method as in earlier work", "settings": "ref MMV; cited from earlier work"}, "[9]": {"parameters": "method as in earlier work", "settings": "HMS, Human; ref MMV; cited from earlier work"}, "[10]": {"parameters": "method as in earlier work", "settings": "MMS, Human; ref MMV; cited from earlier work"}, "[11]": {"parameters": "method as in earlier work", "settings": "PLS, ref MMV; cited from earlier work"}, "[12]": {"settings": "PO, administered dose 119 μmol/kg, ref MMV"}},
  "note": "Where “and” joins values, the source holds several entries; their conditions need not be identical. Equal values may be shown once. Read-outs that look alike come from different tables or passages of the source.",
  "data": [
    {"smiles": "O=C(Nc1cccc(C(F)(F)F)c1)c1cc(Cl)ccc1O", "note": "[MMV665807]", "values": [
      {"measurement": "IC50", "setting": "[1]; confluent cells, read-out: Confluent HFF (IC50)", "result": "29200 ± 60", "unit": "nM"},
      {"measurement": "IC50", "setting": "[1]; proliferating cells, read-out: Preconfluent HFF (IC50)", "result": "4800 ± 590", "unit": "nM"},
      {"measurement": "IC50", "setting": "[2]", "result": "600 ± 370", "unit": "nM"},
      {"measurement": "ultrastructural alterations (TEM)", "setting": "[3]; 0.1 μM and 0.4 μM", "result": "did not show any major alterations"},
      {"measurement": "ultrastructural alterations (TEM)", "setting": "[3]; 0.8 μM", "result": "Clear alterations in the Echinococcus ultrastructure"},
      {"measurement": "ultrastructural alterations (TEM)", "setting": "[3]; 1.6 μM", "result": "clear signs of cell death"},
      {"measurement": "lowest concentration that almost completely abolishes viability of the metacestode tissue", "setting": "[4]", "result": 1.6, "unit": "µM"},
      {"measurement": "IC50", "setting": "[5]", "result": 1800, "unit": "nM"},
      {"measurement": "IC50", "setting": "[6]", "result": "600 to 1300", "unit": "nM"},
      {"measurement": "AUC0-last", "setting": "[7]; [12]", "result": 0.264, "unit": "µM·h"},
      {"measurement": "Cmax", "setting": "[7]; [12]", "result": 62.3, "unit": "nM"},
      {"measurement": "MRT0-last", "setting": "[7]; [12]", "result": 5.24, "unit": "h"},
      {"measurement": "Tlast", "setting": "[7]; [12]", "result": 9.00, "unit": "h"},
      {"measurement": "Tmax", "setting": "[7]; [12]", "result": 6.33, "unit": "h"},
      {"measurement": "plasma level", "setting": "[7]; single dose p.o. application of 50 mg/kg, ref MMV (S3 Table)", "result": 60, "unit": "nM"},
      {"measurement": "Kinetic Solubility pH=7.4", "setting": "[8]", "result": "1.12 µg/mL and 3.55 µM"},
      {"measurement": "CLint", "setting": "[9]", "result": 107.6, "unit": "mL/min/kg"},
      {"measurement": "t½", "setting": "[9]", "result": 0.388, "unit": "h"},
      {"measurement": "CL", "setting": "[10]", "result": 66.8, "unit": "µL/min/mg"},
      {"measurement": "CLh", "setting": "[10]", "result": 15.9, "unit": "mL/min/kg"},
      {"measurement": "CLint", "setting": "[10]", "result": 66.1, "unit": "mL/min/kg"},
      {"measurement": "T1/2", "setting": "[10]", "result": 0.692, "unit": "h"},
      {"measurement": "% Remaining after Incubation (60 min) CD-1 Mouse Plasma", "setting": "[11]", "result": 102.5, "unit": "%"}
    ]}
  ]
}
